Consider six compounds from ChEMBL document CHEMBL1152816 (J Med Chem, 2009).

Assay [1] in a line: Inhibition of potato 5LOX by enzyme immunoassay. Set-up: species or system Solanum tuberosum.
For assay [2], the system named is Rattus norvegicus. Description: Antiinflammatory activity against carrageenan-induced foot paw edema in po dosed rat after 3 hrs. The assay is classed as functional.
The subject of assay [3] is Rattus norvegicus. Description: Antiinflammatory activity against carrageenan-induced foot paw edema in rat at 150 mg/kg, po after 3 hrs. It is filed as functional.
The target in assay [4] is T1, Prostaglandin G/H synthase 1 (Bos taurus, UniProt O62664).
T1 sequence (O62664 whole entry): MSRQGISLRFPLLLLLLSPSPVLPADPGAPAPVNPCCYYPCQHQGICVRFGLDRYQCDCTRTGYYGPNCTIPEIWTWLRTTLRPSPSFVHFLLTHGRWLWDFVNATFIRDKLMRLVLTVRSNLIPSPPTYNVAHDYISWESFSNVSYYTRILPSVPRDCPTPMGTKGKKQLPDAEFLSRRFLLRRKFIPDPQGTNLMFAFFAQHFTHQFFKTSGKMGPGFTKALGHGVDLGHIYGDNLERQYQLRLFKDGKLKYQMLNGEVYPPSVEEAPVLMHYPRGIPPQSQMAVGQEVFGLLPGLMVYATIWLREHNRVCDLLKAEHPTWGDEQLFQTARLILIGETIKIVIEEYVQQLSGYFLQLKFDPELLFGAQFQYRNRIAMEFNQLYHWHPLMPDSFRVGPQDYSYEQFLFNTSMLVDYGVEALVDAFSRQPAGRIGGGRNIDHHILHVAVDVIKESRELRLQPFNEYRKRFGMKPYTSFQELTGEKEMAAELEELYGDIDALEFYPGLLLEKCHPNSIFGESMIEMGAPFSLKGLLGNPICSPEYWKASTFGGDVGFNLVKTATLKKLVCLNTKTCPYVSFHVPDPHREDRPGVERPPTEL
Description: Inhibition of bovine COX1 by enzyme immunoassay

The target in assay [5] is T2, Prostaglandin G/H synthase 2 (Homo sapiens, UniProt P35354).
T2 sequence (P35354 whole entry): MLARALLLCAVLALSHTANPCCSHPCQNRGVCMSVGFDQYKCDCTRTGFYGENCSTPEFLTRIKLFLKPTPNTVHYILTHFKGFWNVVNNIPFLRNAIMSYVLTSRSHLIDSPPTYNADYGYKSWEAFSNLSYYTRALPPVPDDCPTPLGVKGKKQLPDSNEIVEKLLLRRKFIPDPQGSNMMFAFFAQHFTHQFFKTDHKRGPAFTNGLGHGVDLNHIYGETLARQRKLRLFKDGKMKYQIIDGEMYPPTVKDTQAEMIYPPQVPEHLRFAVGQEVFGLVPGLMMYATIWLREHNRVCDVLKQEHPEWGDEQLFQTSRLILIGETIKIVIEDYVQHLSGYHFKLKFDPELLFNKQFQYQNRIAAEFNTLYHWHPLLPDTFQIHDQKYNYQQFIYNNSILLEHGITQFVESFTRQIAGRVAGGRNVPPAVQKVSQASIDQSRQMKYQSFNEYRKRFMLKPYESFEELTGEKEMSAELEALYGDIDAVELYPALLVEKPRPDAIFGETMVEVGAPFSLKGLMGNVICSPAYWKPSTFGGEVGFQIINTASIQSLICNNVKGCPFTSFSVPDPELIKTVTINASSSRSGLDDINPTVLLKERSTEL
The assay is described as follows: Inhibition of human recombinant COX2 by enzyme immunoassay.

The IC50 is the point on the concentration scale where inhibition reaches its midpoint. A word on the ED50: it is the dose that gives a 50% effect, or the effect in half of the subjects. A low value points to greater potency. With `CS(=O)(=O)c1ccc(-n2nc(C(F)(F)F)cc2-c2ccnc(Cl)c2)cc1`, the IC50 turned out to be 0.47 µM in assay [1] and 258 µM in assay [4]. In the assay with Rattus norvegicus [2], the ED50 was over 150 mg/kg. Also, the Activity in the assay with Rattus norvegicus [3] is on record as 43.1%.
Take `CS(=O)(=O)c1ccc(-n2nc(C(F)(F)F)cc2-c2ccn(C(F)F)c(=O)c2)cc1`: the IC50 in assay [5] worked out at 1.82 µM; in assay [1] it was 4.4 µM; in assay [4], 7.8 µM. For the same compound, in the assay on Rattus norvegicus [2], the 50% effect level (ED50) was put at a dose of 42.9 mg/kg.
Turning to `NS(=O)(=O)c1ccc(-n2nc(C(F)(F)F)cc2-c2ccnc(Cl)c2)cc1`, the figures for the IC50 in assay [5], in assay [1] and in assay [4] were 0.73 µM, 0.39 µM and 8.3 µM, respectively. Further, the ED50 in the assay with Rattus norvegicus [2] is over 150 mg/kg. Further, in the assay on Rattus norvegicus [3], the Activity was 33.3%.
For `NS(=O)(=O)c1ccc(-n2nc(C(F)(F)F)cc2-c2ccn(C(F)F)c(=O)c2)cc1`, the IC50 worked out at 0.69 µM in assay [5], 5 µM in assay [1] and 13.1 µM in assay [4]. In the assay on Rattus norvegicus [2], this compound returned an ED50 of 27.7 mg/kg.
As to `O=C(O)/C=C/c1ccc(O)c(O)c1` [CAFFEIC ACID], in assay [1], the IC50 turned out to be 4 µM.
For `CC(C)Cc1ccc(C(C)C(=O)O)cc1` (centres undefined) [IBUPROFEN], in the assay with Rattus norvegicus [2], the ED50 came to 67.4 mg/kg.
